Measurements as given in US20210009564A1, “CALPAIN MODULATORS AND THERAPEUTIC USES THEREOF” (BLADE THERAPERTICS, INC., priority 2018, published 2021).

What was measured:
[1] = target: T1, Human Calpain 2/NS1 (Homo sapiens, UniProt P17655); experiment: Calpain inhibition, continuous fluorescence (FRET substrate) assay, calpain 2; assay type: biochemical; details: SensoLyte 520 FRET substrate, 25C
T1 sequence (P17655 1-700): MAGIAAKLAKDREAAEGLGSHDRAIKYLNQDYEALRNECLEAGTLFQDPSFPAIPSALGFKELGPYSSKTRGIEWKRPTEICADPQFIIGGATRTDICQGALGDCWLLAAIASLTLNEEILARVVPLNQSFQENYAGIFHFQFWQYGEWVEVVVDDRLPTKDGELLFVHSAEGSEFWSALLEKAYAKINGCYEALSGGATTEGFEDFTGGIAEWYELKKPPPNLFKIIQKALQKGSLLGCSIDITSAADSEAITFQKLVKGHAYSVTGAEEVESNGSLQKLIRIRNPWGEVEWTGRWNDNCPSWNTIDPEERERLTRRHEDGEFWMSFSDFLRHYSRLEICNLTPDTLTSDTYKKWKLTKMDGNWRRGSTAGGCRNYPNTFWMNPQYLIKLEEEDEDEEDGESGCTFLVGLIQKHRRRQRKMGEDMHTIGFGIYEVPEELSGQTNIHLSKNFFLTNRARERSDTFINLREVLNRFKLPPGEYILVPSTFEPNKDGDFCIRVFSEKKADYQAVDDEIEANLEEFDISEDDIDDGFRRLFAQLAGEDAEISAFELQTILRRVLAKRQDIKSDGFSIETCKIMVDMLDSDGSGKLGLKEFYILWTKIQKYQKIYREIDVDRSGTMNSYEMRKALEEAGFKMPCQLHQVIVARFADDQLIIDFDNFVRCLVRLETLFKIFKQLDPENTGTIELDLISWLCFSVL
T1 sequence (P04632 1-268 partner): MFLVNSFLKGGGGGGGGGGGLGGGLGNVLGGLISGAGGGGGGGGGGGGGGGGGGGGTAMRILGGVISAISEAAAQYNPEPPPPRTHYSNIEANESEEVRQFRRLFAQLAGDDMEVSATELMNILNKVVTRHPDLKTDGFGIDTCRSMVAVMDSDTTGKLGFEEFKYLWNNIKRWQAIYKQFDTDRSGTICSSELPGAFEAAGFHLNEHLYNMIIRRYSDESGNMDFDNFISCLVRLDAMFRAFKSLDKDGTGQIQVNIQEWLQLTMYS
Method in brief: (§1)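 Continuous FRET read-out (ex 490/em 520 nm) of 5-FAM/QXL 520 substrate cleavage, started by adding substrate with CaCl2 for in-situ activation after enzyme–inhibitor preincubation at 25 °C. Buffer was Tris 50 mM pH 7.5, NaCl 100 mM, DTT 1 mM. IC50 fitted (4-parameter) from rates over 1-5 min.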

[2] = system: Calpain activity in SH-SY5Y cells; experiment: SH-SY5Y spectrin breakdown product (SBDP-150) western blot assay; assay type: cell-based; details: Homo sapiens, read-out: SH-SY5Y Spectrin IC50
[3] = target: T2, Human Calpain 9/NS1 (Homo sapiens, UniProt O14815); experiment: Calpain inhibition, continuous fluorescence (FRET substrate) assay, calpain 9; assay type: biochemical; details: SensoLyte 520 FRET substrate, 25C
T2 sequence (O14815 1-690): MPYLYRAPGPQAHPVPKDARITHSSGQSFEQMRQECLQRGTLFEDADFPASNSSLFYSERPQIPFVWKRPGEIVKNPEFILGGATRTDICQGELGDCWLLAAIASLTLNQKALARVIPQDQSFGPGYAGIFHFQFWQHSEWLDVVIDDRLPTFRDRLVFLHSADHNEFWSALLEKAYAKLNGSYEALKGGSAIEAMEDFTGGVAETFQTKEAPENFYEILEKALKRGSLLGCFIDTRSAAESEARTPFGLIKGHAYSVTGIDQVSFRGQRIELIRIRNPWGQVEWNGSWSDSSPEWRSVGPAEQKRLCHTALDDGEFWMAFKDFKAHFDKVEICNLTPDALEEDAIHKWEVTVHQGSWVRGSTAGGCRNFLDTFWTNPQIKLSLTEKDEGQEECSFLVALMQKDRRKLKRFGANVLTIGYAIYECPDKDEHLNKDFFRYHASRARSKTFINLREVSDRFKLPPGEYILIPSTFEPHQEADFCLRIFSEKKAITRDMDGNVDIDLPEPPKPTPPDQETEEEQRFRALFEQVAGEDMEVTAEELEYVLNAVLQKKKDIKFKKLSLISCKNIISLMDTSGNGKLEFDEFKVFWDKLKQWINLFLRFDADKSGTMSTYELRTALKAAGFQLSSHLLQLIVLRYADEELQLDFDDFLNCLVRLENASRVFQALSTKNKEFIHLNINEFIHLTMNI
T2 sequence (P04632 1-268 partner): T1 sequence (P04632 1-268 partner)
Method in brief: as §1

[4] = system: Calpain activity in SH-SY5Y cells; experiment: SH-SY5Y Suc-LLVY-AMC fluorescence assay; assay type: cell-based; details: Homo sapiens, read-out: SH-SY5Y + AMC IC50
[5] = target: T3, Human Calpain 1/NS1 (Homo sapiens, UniProt P07384); experiment: Calpain inhibition, continuous fluorescence (FRET substrate) assay, calpain 1; assay type: biochemical; details: SensoLyte 520 FRET substrate, 25C
T3 sequence (P07384 1-714): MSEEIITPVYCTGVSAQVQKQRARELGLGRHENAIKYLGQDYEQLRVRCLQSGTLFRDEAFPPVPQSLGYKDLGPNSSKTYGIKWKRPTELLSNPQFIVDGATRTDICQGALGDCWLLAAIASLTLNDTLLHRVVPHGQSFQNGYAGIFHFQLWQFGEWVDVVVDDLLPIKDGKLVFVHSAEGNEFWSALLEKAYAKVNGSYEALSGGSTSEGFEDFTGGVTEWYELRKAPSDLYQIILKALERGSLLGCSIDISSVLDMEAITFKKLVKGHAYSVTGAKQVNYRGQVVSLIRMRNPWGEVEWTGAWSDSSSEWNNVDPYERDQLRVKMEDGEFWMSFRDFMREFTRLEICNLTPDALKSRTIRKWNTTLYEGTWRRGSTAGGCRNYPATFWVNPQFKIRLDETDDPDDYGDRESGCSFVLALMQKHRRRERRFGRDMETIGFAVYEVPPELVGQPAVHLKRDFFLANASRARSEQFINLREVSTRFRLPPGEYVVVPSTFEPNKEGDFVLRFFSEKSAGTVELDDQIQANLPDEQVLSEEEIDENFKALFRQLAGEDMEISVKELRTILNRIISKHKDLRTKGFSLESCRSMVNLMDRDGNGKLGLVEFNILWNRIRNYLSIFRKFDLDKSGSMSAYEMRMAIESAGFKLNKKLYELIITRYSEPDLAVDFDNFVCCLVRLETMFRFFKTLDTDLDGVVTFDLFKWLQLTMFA
T3 sequence (P04632 1-268 partner): T1 sequence (P04632 1-268 partner)
Method in brief: as §1

[6] = SH-SY5Y cells, 25 uM A23187, SBDP-150 western blot
[7] = SH-SY5Y cells, 100 uM Suc-LLVY-AMC

| IC50 [1] | IC50 [3] | IC50 [5] | IC50 [2, 6] | IC50 [4, 7] | SMILES | IC50 ([2]; SH-SY5Y) | IC50 ([4]; SH-SY5Y) |
| --- | --- | --- | --- | --- | --- | --- | --- |
| < 3 µM | < 3 µM | < 3 µM | < 10 µM | < 10 µM | O=C(O)C(=O)C(Cc1ccccc1)NC(=O)c1nsnc1-c1ccccc1 (centres unmarked) [Compound 67, 2-OXO-4-PHENYL-3-(4-PHENYL-1,2,5-THIADIAZOLE-3-CARBOXAMIDO)BUTANOIC ACID] | – | – |
| < 3 µM | < 3 µM | < 3 µM | 10 to 25 µM | < 10 µM | Cc1cc(-c2nn(C(F)F)cc2C(=O)NC(Cc2ccccc2)C(=O)C(N)=O)c(C)o1 (centres unmarked) [Compound 24, N-(4-AMINO-3,4-DIOXO-1-PHENYLBUTAN-2-YL)-1-(DIFLUOROMETHYL)-3-(2,5-DIMETHYLFURAN-3-YL)-1H-PYRAZOLE-4-CARBOXAMIDE] | – | – |
| < 3 µM | < 3 µM | < 3 µM | 10 to 25 µM | < 10 µM | Cc1nc(-c2cc(Cl)oc2Cl)c(C(=O)NC(Cc2ccccc2)C(=O)C(N)=O)o1 (centres unmarked) [Compound 81, N-(4-AMINO-3,4-DIOXO-1-PHENYLBUTAN-2-YL)-4-(2,5-DICHLOROFURAN-3-YL)-2-METHYLOXAZOLE-5-CARBOXAMIDE] | – | – |
| < 3 µM | < 3 µM | < 3 µM | > 25 µM | > 25 µM | Cn1cc(C(=O)NC(Cc2ccccc2)C(=O)C(N)=O)c(-c2cccc3cccnc23)n1 (centres unmarked) [Compound 14] | – | – |
| < 3 µM | < 3 µM | < 3 µM | 10 to 25 µM | > 25 µM | Cn1cc(C(=O)NC(Cc2ccc(C(F)(F)F)cc2)C(=O)C(N)=O)c(-c2ccccc2F)n1 (centres unmarked) [Compound 95, N-(4-AMINO-3,4-DIOXO-1-(4-(TRIFLUOROMETHYL)PHENYL)BUTAN-2-YL)-3-(2-FLUOROPHENYL)-1-METHYL-1H-PYRAZOLE-4-CARBOXAMIDE] | – | – |

The next lines start with the compound.

| SMILES | IC50 [1] | IC50 [3] | IC50 [5] | IC50 [2, 6] | IC50 [4, 7] | IC50 ([2]; SH-SY5Y) | IC50 ([4]; SH-SY5Y) |
| --- | --- | --- | --- | --- | --- | --- | --- |
| CNC(=O)c1cccc(-c2nn(C)cc2C(=O)NC(Cc2ccccc2)C(=O)C(N)=O)c1 (centres unmarked) [Compound 17] | < 3 µM | < 3 µM | < 3 µM | – | – | > 25 µM | 10 to 25 µM |
| Cn1cc(C(=O)NC(Cc2ccccc2)C(=O)C(N)=O)c(-c2cccc3sccc23)n1 (centres unmarked) [Compound 102, N-(4-AMINO-3,4-DIOXO-1-PHENYLBUTAN-2-YL)-3-(BENZO[b]THIOPHEN-4-YL)-1-METHYL-1H-PYRAZOLE-4-CARBOXAMIDE] | < 3 µM | < 3 µM | < 3 µM | < 10 µM | > 25 µM | – | – |
| NC(=O)C(=O)C(Cc1ccccc1)NC(=O)c1cn(C(F)F)nc1-c1cc(Cl)oc1Cl (centres unmarked) [Compound 36, N-(4-AMINO-3,4-DIOXO-1-PHENYLBUTAN-2-YL)-3-(2,5-DICHLOROFURAN-3-YL)-1-(DIFLUOROMETHYL)-1H-PYRAZOLE-4-CARBOXAMIDE] | < 3 µM | < 3 µM | < 3 µM | < 10 µM | < 10 µM | – | – |
| COC(=O)C(=O)C(Cc1ccccc1)NC(=O)c1oc(C)nc1-c1ccccc1F (centres unmarked) [Compound 42, METHYL 3-(4-(2-FLUOROPHENYL)-2-METHYLOXAZOLE-5-CARBOXAMIDO)-2-OXO-4-PHENYLBUTANOATE] | < 3 µM | < 3 µM | < 3 µM | < 10 µM | < 10 µM | – | – |
| Cc1nc(-c2ccccc2F)c(C(=O)NC(Cc2ccccc2Cl)C(=O)C(N)=O)o1 (centres unmarked) [Compound 83, N-(4-AMINO-1-(2-CHLOROPHENYL)-3,4-DIOXOBUTAN-2-YL)-4-(2-FLUOROPHENYL)-2-METHYLOXAZOLE-5-CARBOXAMIDE] | < 3 µM | < 3 µM | < 3 µM | > 25 µM | < 10 µM | – | – |
